Test results reported in patent US7176163B1, “Pharmacological effect potentiators for pesticides” (Meija Seika Kaisha, Ltd., priority 2000, dated 2007).

Assays:
[1] = test system: cotyledon of cucumber (variety: Yotsuba); test: Microbicide (Benomyl) absorption enhancement by spraying jasmonic acids; assay type: in vivo
Method: In the present test, Benlate (registered trademark, manufactured by DuPont Corp., containing 50% of Benomyl as the main component) was used as microbicide. As a test material, cotyledon of cucumber (variety: Yotsuba) was used and absorption amount of the microbicide (hereinafter, referred to as “Benomyl absorption amount”) was measured. To the cucumber on day 10 after the seeding was uniformly sprayed 0.22 ml per individual of 0.1% Benlate solution (0.05% Benomyl containing solution) that contains methyl jasmonate (hereinafeter, abbreviated as “MeJA”) or n-propyl (2-pentyl-3-oxocyclopentyl)acetate, also named n-propyldihydrojasmonic acid (hereinafter, abbreviated as “PDJ”) and the cucumber was placed in a glass-made chamber. MeJA or PDJ was mixed to make 0.001 ppm, 0.01 ppm, 0.1 ppm, 1.0 ppm, or 5.0 ppm based on the Benlate solution amount and applied simultaneously. After sealing the lid of the chamber, the cucumber was cultivated in an air-conditioned room. As a control, similarly Benlate-treated cucumber seedlings were placed in a separate chamber and cultivated.
After two days of cultivation, the cotyledons were cut off and the surfaces of them were washed carefully with a neutral detergent. The cotyledons were ground and extracted with heating. The treatment of extraction solution and quantitation of Benomyl were carried out by high performance liquid chromatography referring to the quantitation method of Benomyl in Residual Pesticide Standards Handbook (Kagaku Kogyo Nippo, 1995, pp843-845) using 2-methylbenzimidazolecarbamate, which is a metabolite of Benomyl, as an indicator. […] As will be apparent from Table 1, enhancement of the absorption of Benomyl by application of MeJA or PDJ was observed.
Tests on microbicide absorption enhancement were performed in the same manner as in Test Example 1 using the following compounds. Common names and abbreviations of each compound are shown in the brackets. The compounds were synthesized in the same manner as in the examples in Japanese Patent Application Laid-open No. Hei 11-140022. • 1. […] (dihydrojasmonic acid: DJA) • 2. allyl (2-pentyl-3-oxocyclopentyl)acetate (allyl dihydrojasmonate: ADJ) • 3. 2-pentenyl (2-pentyl-3-oxocyclopentyl)acetate (dihydrojasmonic acid-2-pentenyl: PEDJ) • 4. 3-butenyl (2-pentyl-3-oxocyclopentyl)acetate (dihydrojasmonic acid-3-butenyl: BEDJ) • 5. 3-butynyl (2-pentyl-3-oxocyclopentyl)acetate (butynyl dihydrojasmonate : BYDJ)
Each compound was mixed so that it occupies 0.01 ppm based on the Benlate solution and given at the same time. Extraction and quantitation were practiced by the methods described in Test Example 1. The results are shown as relative values of Benomyl absorption amount in each lot to that of control. As a result, as will be apparent from Table 6, enhancement of absorption of Benomyl was confirmed.

cucumber seedlings = test: Benomyl absorption enhancement by fumigation of methyl jasmonate; assay type: in vivo; details: MeJA fumigation 25 μl/m^3, natural diffusion in sealed chamber; seedlings sprayed with 0.1% Benlate solution
Method: MeJA was applied as follows. MeJA Stock solution was charged in an open Petri dish (φ60 mm) to 25 μl/m^3, which was placed in a glass-made chamber and then sealed and allowed to naturally diffuse. Then, cucumber seedlings uniformly sprayed with 0.22 ml per individual of 0.1% Benlate solution (0.05% Benomyl containing solution) were placed and sealed. This was cultivated in an air-conditioned room. As a control cucumber seedlings that had been similarly treated with Benlate but not fumigated with MeJA were placed in a separate chamber and cultivated. Extraction was made in the same manner as in Test Example 1 and comparative quantitation in comparison with control lot was made.

cucumber powdery mildew = test: Powdery mildew preventive effect improvement by methyl jasmonate fumigation; assay type: in vivo, Sphaeheca fuliginea; details: MeJA fumigation 25 μl/m^3 after 0.1% Benlate spraying; infection on day 3; control lot (no fumigation) = 100
Method: Cucumber seedlings were cultivated in the same manner as in Test Example 2 and uniformly sprayed with 0.22 ml per individual of 0.1% Benlate solution (0.05% Benomyl containing solution). Thereafter, MeJA fumigation was performed as follows. MeJA Stock solution was charged in an open Petri dish (φ60 mm) to 25 μl/m^3, which was placed in a glass-made chamber and then sealed. On day 3 after the initiation of the fumigation, cucumber powdery mildew was infected in the same manner as in Test Example 3 and powdery mildew plaque number was counted. […] The control lot means a lot in which no MeJA fumigation was performed. Thus, it was confirmed that MeJA fumigation further improved the powdery mildew preventive effect of Benomyl.

[2] = test system: cucumber powdery mildew (Sphaeheca fuliginea); test: Powdery mildew preventive effect improvement by PDJ spraying; assay type: in vivo; details: infection 3 days after application, plaques counted after 10 days, control lot (Benlate without PDJ) = 100
Method: Cucumber seedlings were cultivated in the same manner as in Test Example 1 and uniformly sprayed with 0.22 ml per individual of 0.1% Benlate solution (0.05% Benomyl containing solution) mixed with PDJ in an amount of 0.01 ppm or 0.1 ppm based on the amount of Benlate solution. After 3 days from the application of Benlate solution, a spore suspension of cucumber powdery mildew (Sphaeheca fuliginea) prepared to 1.0×10^5 cells/ml was sprayed (0.2 ml per individual) on a first true leaf of each seedling and the seedlings were cultivated in a glass-made chamber. After 10 days, powdery mildew plagues were counted. […] Morbidity=(Average of powdery mildew plaque number on cucumber first true leaf in each treated lot)/(Average of powdery mildew plaque number on cucumber first true leaf in control lot)×100
Here, the control lot means a lot that is treated with a Benlate solution containing no PDJ. Thus, it was confirmed that PDJ spraying further increased the powdery mildew preventive effect of Benomyl.

Poa annua = test: Herbicidal effect enhancement by PDJ spraying; assay type: in vivo; details: Herbie liquid diluted 1/1000 plus PDJ 0.01 ppm; sprayed 5 ml/15 individuals; dry weight of above-ground part after 2 weeks
Method: Seeds of Poa annua were sown on commercially available cultivation soil for raising seedlings and after about 2 weeks of cultivation, seedlings of about 6 cm in height were obtained. For each lots, tests were performed in 5 series each with 3 individuals. The herbicide used was Herbie liquid (registered trademark of Meiji Seika Kaisha Limited, 18% Bialaphos containing solution) diluted to 1/1000. PDJ was used as a pharmacological action enhancer and this was added in an amount of 0.01 ppm based on the liquid amount of the herbicide. Application to the plant body was performed by spraying in an amount of 5 ml/15 individuals. After 2 weeks from the application, the dry weight of above-ground part was measured and mortality was calculated in accordance with the following equation and the effect was compared. […] Wilting Mortality={1−(growth amount of applied lot/growth amount of non-applied lot)}×100

[3] = Test Example 6: 0.01 ppm based on the Benlate solution, given at the same time
[4] = 0.001 ppm in 0.1% Benlate solution, sprayed simultaneously, cucumber cotyledons after two days
[5] = 0.01 ppm in 0.1% Benlate solution, sprayed simultaneously, cucumber cotyledons after two days
[6] = 0.1 ppm in 0.1% Benlate solution, sprayed simultaneously, cucumber cotyledons after two days
[7] = 1.0 ppm in 0.1% Benlate solution, sprayed simultaneously, cucumber cotyledons after two days

C=CCOC(=O)CC1CCC(=O)C1CCCCC (stereo not drawn) [ADJ, allyl (2-pentyl-3-oxocyclopentyl)acetate]
Relative value (%) of Benomyl absorption amount to that of control lot [1, 3]: 145%

C=CCCOC(=O)CC1CCC(=O)C1CCCCC (stereo not drawn) [BEDJ, 3-butenyl (2-pentyl-3-oxocyclopentyl)acetate]
Relative value (%) of Benomyl absorption amount to that of control lot [1, 3]: 155%

C#CCCOC(=O)CC1CCC(=O)C1CCCCC (stereo not drawn) [BYDJ, 3-butynyl (2-pentyl-3-oxocyclopentyl)acetate]
Relative value (%) of Benomyl absorption amount to that of control lot [1, 3]: 130%

CC/C=C\CC1C(=O)CCC1CC(=O)OC (stereo not drawn) [MeJA]
Relative value (%) of Benomyl absorption amount to that of control lot [1, 4]: 96%
Relative value (%) of Benomyl absorption amount to that of control lot [1, 5]: 124%
Relative value (%) of Benomyl absorption amount to that of control lot [1, 6]: 127%
Relative value (%) of Benomyl absorption amount to that of control lot [1, 7]: 142%
Relative value (%) of Benomyl absorption amount to that of control lot ([1]; 5.0 ppm in 0.1% Benlate solution, sprayed simultaneously, cucumber cotyledons after two days): 113%
Relative value (%) of Benomyl absorption amount to that of control lot (cucumber seedlings): 144%
Powdery Mildew Morbidity (cucumber powdery mildew): 76

CCCCCC1C(=O)CCC1CC(=O)OCCC (stereo not drawn) [PDJ, n-propyl (2-pentyl-3-oxocyclopentyl)acetate]
Relative value (%) of Benomyl absorption amount to that of control lot [1, 4]: 103%
Relative value (%) of Benomyl absorption amount to that of control lot [1, 5]: 136%
Relative value (%) of Benomyl absorption amount to that of control lot [1, 6]: 118%
Relative value (%) of Benomyl absorption amount to that of control lot [1, 7]: 110%
Powdery Mildew Morbidity ([2]; PDJ 0.01 ppm in 0.1% Benlate solution): 70
Powdery Mildew Morbidity ([2]; PDJ 0.1 ppm in 0.1% Benlate solution): 88
Wilting Mortality (Poa annua): 81.2%

CCC=CCOC(=O)CC1CCC(=O)C1CCCCC (stereo not drawn) [PEDJ, 2-pentenyl (2-pentyl-3-oxocyclopentyl)acetate]
Relative value (%) of Benomyl absorption amount to that of control lot [1, 3]: 130%
